Measured values reported in ChEMBL document CHEMBL1221268, “Synthesis of a series of novel 2,4,5-trisubstituted selenazole compounds as potential PLTP inhibitors” (Bioorg Med Chem Lett, 2010).
pIC50: −log10 of the molar value.

Tests used:
[1] = molecular target: Phospholipid transfer protein (Homo sapiens, UniProt P55058); experiment: Inhibition of PLTP; settings: for pIC50: read-out: IC50
[2] = molecular target: T1, Cholesteryl ester transfer protein (Homo sapiens, UniProt P11597); experiment: Inhibition of CETP; settings: for pIC50: read-out: IC50
T1 sequence (P11597 whole entry): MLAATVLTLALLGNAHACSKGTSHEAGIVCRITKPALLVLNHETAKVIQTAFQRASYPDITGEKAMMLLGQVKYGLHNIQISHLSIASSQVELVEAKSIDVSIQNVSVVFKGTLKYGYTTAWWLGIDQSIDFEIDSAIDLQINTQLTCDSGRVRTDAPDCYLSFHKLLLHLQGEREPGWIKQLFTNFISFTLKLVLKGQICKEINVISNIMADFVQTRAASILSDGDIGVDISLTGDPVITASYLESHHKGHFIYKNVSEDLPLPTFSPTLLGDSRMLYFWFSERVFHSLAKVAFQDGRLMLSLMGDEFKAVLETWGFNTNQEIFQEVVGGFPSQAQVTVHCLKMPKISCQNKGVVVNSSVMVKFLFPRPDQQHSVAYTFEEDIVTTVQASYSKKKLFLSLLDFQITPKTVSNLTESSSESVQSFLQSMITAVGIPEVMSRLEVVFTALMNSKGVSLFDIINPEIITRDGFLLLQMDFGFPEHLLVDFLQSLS

Phospholipid transfer protein, sequence (P55058 whole entry): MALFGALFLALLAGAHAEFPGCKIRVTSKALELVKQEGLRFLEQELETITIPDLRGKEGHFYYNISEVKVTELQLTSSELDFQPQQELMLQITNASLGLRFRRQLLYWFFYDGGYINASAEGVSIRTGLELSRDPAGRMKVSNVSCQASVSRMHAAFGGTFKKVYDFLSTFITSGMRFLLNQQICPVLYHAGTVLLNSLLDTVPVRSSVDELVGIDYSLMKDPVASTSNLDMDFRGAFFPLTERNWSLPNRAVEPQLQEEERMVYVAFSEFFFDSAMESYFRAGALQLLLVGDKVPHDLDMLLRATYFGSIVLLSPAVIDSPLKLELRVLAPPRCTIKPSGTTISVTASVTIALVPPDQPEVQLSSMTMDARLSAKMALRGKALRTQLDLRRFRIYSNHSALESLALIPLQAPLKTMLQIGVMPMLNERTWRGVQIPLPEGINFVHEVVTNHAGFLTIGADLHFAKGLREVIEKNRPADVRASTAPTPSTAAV

Row | SMILES | pIC50 [1] | IC50 [2] | IC50 [1] | pIC50 [2]
1 | CCc1[se]c(NC(=O)c2cc(O)c(O)c(O)c2)nc1-c1ccc(O)cc1 | 4.49 | Not Active | – | –
2 | CCc1[se]c(NC(=O)c2ccc(OC)c(OC)c2)nc1-c1ccc(OC)cc1 | 4.00 | Not Active | – | –
3 | CCc1[se]c(NC(=O)c2ccc(Cl)cc2)nc1-c1ccc(O)cc1 | 4.22 | Not Active | – | –
4 | CCc1[se]c(NC(=O)c2cc(OC)c(OC)c(OC)c2)nc1-c1ccc(OC)cc1 | – | Not Active | Not Active | –
5 | CCc1[se]c(NC(=O)c2ccc(Cl)cc2)nc1-c1ccc(OC)cc1 | – | Not Active | Not Active | –
6 | COc1ccc(-c2nc(NC(=O)c3ccc(OC)c(OC)c3)[se]c2Cc2ccccc2)cc1 | 4.10 | – | – | 4.52
7 | O=C(Nc1nc(-c2ccc(O)cc2)c(Cc2ccccc2)[se]1)c1ccc(O)c(O)c1 | 4.46 | Not Active | – | –
8 | COc1ccc(-c2nc(NC(=O)c3ccc([N+](=O)[O-])cc3)[se]c2Cc2ccccc2)cc1 | 4.07 | Not Active | – | –
9 | COc1ccc(-c2nc(NC(=O)c3cc(OC)c(OC)c(OC)c3)[se]c2Cc2ccccc2)cc1 | – | – | Not Active | 4.60
10 | O=C(Nc1nc(-c2ccc(O)cc2)c(Cc2ccccc2)[se]1)c1cc(O)c(O)c(O)c1 | 4.49 | Not Active | – | –
11 | CCCCCC(=O)Nc1nc(-c2ccc(O)cc2)c(Cc2ccccc2)[se]1 | 4.22 | – | – | 4.60
12 | O=C(Nc1nc(-c2ccccc2)c(-c2ccccc2)[se]1)c1ccc(O)c(O)c1 | 5.10 | Not Active | – | –
13 | O=C(Nc1nc(-c2ccccc2)c(-c2ccccc2)[se]1)c1cc(O)c(O)c(O)c1 | 4.60 | Not Active | – | –
14 | O=C(Nc1nc(-c2ccccc2)c(-c2ccccc2)[se]1)c1ccccc1 | – | Not Active | Not Active | –
15 | COc1cc(C(=O)Nc2nc(-c3ccccc3)c(-c3ccccc3)[se]2)cc(OC)c1OC | – | Not Active | Not Active | –
16 | O=C(Nc1nc(-c2ccccc2)c(-c2ccccc2)[se]1)c1cc(F)c(F)c(F)c1 | – | Not Active | Not Active | –
17 | CCCCc1[se]c(NC(=O)c2cc(O)c(O)c(O)c2)nc1-c1ccc(O)cc1 | 5.00 | Not Active | – | –
18 | CCCCc1[se]c(NC(C)=O)nc1-c1ccc(O)cc1 | 4.22 | Not Active | – | –
19 | CCCCc1[se]c(NC(=O)c2ccc(Cl)cc2)nc1-c1ccc(O)cc1 | 4.22 | Not Active | – | –
20 | CCCCc1[se]c(NC(=O)c2cc(OC)c(OC)c(OC)c2)nc1-c1ccc(OC)cc1 | 3.82 | Not Active | – | –
21 | CCCCc1[se]c(NC(=O)c2ccc(OC)c(OC)c2)nc1-c1ccc(OC)cc1 | 4.10 | Not Active | – | –
